Data on 2 compounds can be found in PMC5156471, “Complementary pharmacological and toxicological characterization data on the pharmacological profile of N-(2,6-dichlorophenyl)-2-(4-methyl-1-piperidinyl) acetamide” (Data in Brief, 2016).

The term LC50 denotes the concentration that kills 50% of the test population. The term LD50 denotes the dose at which mortality reaches 50%.

Data set [1] has as its system brine shrimp larvae (Artemia salina L.). Briefly: Artemia saline lethality test. The format is in vivo.
A short description of data set [2]: Acute toxicity in mice by the Lorke method. The conditions noted are these: male, ICR, mouse, in vivo, ip. The procedure:
(§1) Experiments were performed on ICR male mice by the Lorke method. Doses were selected according this method. In both phases, mice were observed daily for 14 days for mortality, toxic effects and behavioral changes. Restlessness, respiratory distress, seizures, diarrhea, motor activity, posture and reflexes were qualitatively determined. Body weight was also monitored. The internal organs (including the stomach, heart, lung, liver, and kidneys) were removed at the end of experiment and visually examined for lesions.

The test system of the next data set is ICR male mice. Put plainly: Acute toxicity in mice by the Lorke method. Particulars: for Dead mice: i.p., dead/treated, observed 14 days. The procedure:
as §1

In data set [3] the test system is bone marrow polychromatic erythrocytes. The format is in vivo, mice. How it is done:
This test was carried out following standard protocols, [5]. […] Animals were sacrificed 24 h later and the bone marrow from both femurs was flushed out using 2 mL of saline and centrifuged for 5 min at 3000 rpm. The supernatant was discarded, and the pellet was re-suspended in 0.3 mL of saline. Of this smears were made on glass slides. The slides were fixed with methanol and stained with 10% Wright–Giemsa stain. Cells were blindly scored using a light microscope at 100 X magnification. For the analysis of micronucleated cells, 1000 polychromatic erythrocytes (PCE) per animal were scored. In order to assess the cytotoxic effects of compounds, the ratio of PCE to normochromatic erythrocytes (NCE) was determined in 1000 erythrocytes, [5]. The results are presented as the mean number of micronucleated polychromatic erythrocytes (MNPCE) or the ratio PCE:NCE in individual mice (two smears per animal)±SEM for five animals per group (Table 3).

The test system of the next data set is normotensive rats. Briefly: Cardiovascular response in normotensive conscious rats (tail cuff method). The format is in vivo. Particulars: 50 and 80 mg/kg, p.o. The procedure: The hypotensive activity was determined using a standard protocol of Avila-Villarreal et al.. This study was conducted in normotensive rats. […] Systolic and diastolic blood pressure as well as heart rate were recorded before and after treatment at 0, 1, 3, 5 and 7 h by the tail cuff method using a Panlab non-invasive blood pressure system for rodents and dogs (Harvard Apparatus). Percent of reduction in heart rate (HR), systolic blood pressure (SBP) or diastolic blood pressure (DBP) were calculated using diltiazem as control (Fig. 2).

The mark [4] stands for this setting: mice, i.p. (LIA, lidocaine 100 mg/kg; cyclophosphamide 40 mg/kg), 24 h, mean±SEM, five animals.

Where two headings read alike, the source gives them in different places.

Regarding `CC1CCN(CC(=O)Nc2c(Cl)cccc2Cl)CC1` [LIA, N-(2,6-dichlorophenyl)-2-(4-methyl-1-piperidinyl)acetamide], the median lethal concentration (LC50) in data set [1] (Artemia saline L., 24 h, 100-1000 ppm in triplicate) was found to be 335.1 ±85.7 ppm. Moreover, the “Toxicity in Brine Ship (in words)” value in data set [1] (in vivo) was “not toxic”. Further, the median lethal dose (LD50) at 14 days in data set [2] was 800 mg/kg. Moreover, the Dead mice is listed as 0/3 with ICR male mice (Phase I, 10 mg/kg); 0/3 with ICR male mice (Phase I, 100 mg/kg); 3/3 in the data set on ICR male mice (Phase I, 1000 mg/kg); 0/3 with ICR male mice (Phase II, 140 mg/kg); 0/3 with ICR male mice (Phase II, 225 mg/kg); 0/3 in the data set with ICR male mice (Phase II, 370 mg/kg). Also, in the data set with ICR male mice (Phase II, 600 mg/kg), the Dead mice was 3/3. Also, the “Macroscopic damage of internal organs (stomach, heart, lung, liver, kidneys)” value in the data set on ICR male mice (mice, visual examination at the end of experiment (14 days)) is reported as “Neither LIA nor lidocaine produced visible macroscopically damage”. Besides, the “Toxicity in mice (in words)” value with ICR male mice (mouse, in vivo) is “not toxic”. In addition, the “MNPCE per 1000 PCE” value in data set [3] (male, ICR, mouse, in vivo) is 5.8±1.9 ^⁎^, ^#. The “PCE:NCE” value in data set [3] (male, ICR, mouse, in vivo) worked out at 20.7±1.6. Besides, the “Genotoxicity in mice (in words)” value in data set [3] (mouse, in vivo) is given as “not genotoxic”. For the same compound, the “Cardiovascular responses (heart rate, systolic and diastolic blood pressure; in words)” value in the data set with normotensive rats was “does not modify cardiovascular responses”.

Consider `O=P1(N(CCCl)CCCl)NCCCO1` (stereo not drawn) [Cyclophosphamide, reference compound], for which, in data set [3] (setting [4]), the “MNPCE per 1000 PCE” value was found to be 82.6±1.8 and the “PCE:NCE” value is 14±0.3.
